Measured values published in publication PMC12977544, “Phenotypic high-throughput screening identifies modulators of gut microbial choline metabolism” (mBio, 2026).

How the values were obtained:
E. coli MS 200-1 [1] = assay: TMA inhibition in bacterial whole cells (LC–MS/MS of d9-TMA from d9-choline); format: cell-based, Escherichia coli MS 200-1; settings: 1 mM d9-choline in PBS, 75 min, 37°C, anaerobic
Protocol: (§1) For TMA inhibition assays, E. coli and P. mirabilis were grown in NCE medium supplemented with 20 mM choline chloride, A. hydrogenalis was grown in MEGA medium supplemented with 3 mM choline chloride, and C. sporogenes was grown in BHI medium supplemented with 20 mM of choline chloride to induce expression of the cut gene cluster. For MIC assays, all bacteria strains were grown in MEGA medium.
(§2) Compounds were stored as 10 mM DMSO stocks at –20°C and diluted in DMSO to prepare varying concentrations of inhibitors for testing. Bacteria were grown anaerobically overnight in media supplemented with choline as described above. Cells were pelleted and resuspended in PBS, and d9-choline chloride was added to a final concentration of 1 mM. The final OD600 of the PBS cell resuspensions is as follows: 0.4 (E. coli), 0.15–0.2 (P. mirabilis), 0.2 (C. sporogenes), and 0.4 (A. hydrogenalis). The resuspended cells were added to 96-well plates containing inhibitors (final concentration of 1% DMSO, with final inhibitor concentrations ranging between 0 and 325 µM). The plates were sealed and incubated for 75 min (or 90 min for P. mirabilis) at 37°C. Following incubation, the plates were removed from the anaerobic chamber and analyzed immediately or kept at –20°C until LC–MS/MS analysis. Each inhibitor concentration was tested in triplicate. EC50 values were calculated with GraphPad Prism by fitting the log(inhibitor) vs response—Variable slope (four-parameter) model for non-linear regression.
(§3) Samples were kept frozen until analysis and kept cold on ice during handling due to the volatility of TMA. Bacterial cell resuspensions in PBS were diluted 100-fold in LCMS-grade acetonitrile with 0.1% formic acid to lyse cells, precipitate proteins, and extract metabolites. Samples were centrifuged at 4,000 rpm for 10 min at 4°C to pellet proteins. The supernatants were then further diluted 20-fold in LCMS-grade acetonitrile with 0.1% formic acid, and the resulting solution was analyzed by LC–MS/MS.
(§4) LC–MS/MS analysis was performed on an Agilent 1290/6470 Triple Quadrupole LC–MS instrument (Agilent Technologies) using electrospray ionization. The mass spectrometer was operated in multiple reaction monitoring (MRM) mode with positive ionization monitoring. The precursor–product ion pairs used in MRM mode were as follows: m/z 69.1m/z → 49.1 (d9-TMA) and m/z 113.2 m/z → 69.1 (d9-choline). The capillary voltage was set to 4.0 kV, and the fragmentor voltage was set to 30 V (d9-TMA) and 115 V (d9-choline). The collision energy for the precursor–product ion pairs was set to 29 V (d9-TMA) and 21 V (d9-choline). MS^1 resolution was set to wide and MS^2 resolution to unit. The drying gas temperature was maintained at 250°C, with a flow rate of 11 L/min and a nebulizer pressure of 45 psi. The time filter width used was 0.07 min. The injection volume of all samples was 1 μL. Samples were injected onto InfinityLab Poroshell 120 (Agilent) HILIC columns (2.7 μm, 100 mm × 2.1 mm, 100 Å) preceded by InfinityLab Poroshell 120 HILIC guard columns (2.1 mm, 1.9µm UHPLC guard). The LC conditions on the binary pump were as follows: a gradient of 5–35% A increasing over 1.95 min (1.2 mL/min), a gradient of 35–5% A decreasing over 0.05 min (1.6 mL/min), and held at 5% A for 0.5 min (2 mL/min). […] Solvent A was 10 mM ammonium formate with 0.1% formic acid, and solvent B was acetonitrile with 0.1% formic acid. Data analysis was performed with Mass Hunter Workstation Data Acquisition and Qualitative Analysis software (Agilent Technologies).

[2] = test system: Anaerococcus hydrogenalis DSM 7454; assay: as above; format: cell-based; settings: 1 mM d9-choline in PBS, 75 min, 37°C, anaerobic
Protocol: as §1, §2, §3, §4

[3] = test system: Clostridium sporogenes ATCC 15579; assay: as above; format: cell-based; settings: 1 mM d9-choline in PBS, 75 min, 37°C, anaerobic
Protocol: as §1, §2, §3, §4

[4] = test system: Proteus mirabilis ATCC 29906; assay: as above; format: cell-based; settings: 1 mM d9-choline in PBS, 90 min, 37°C, anaerobic; read-out: EC50 in whole cells, P. mirabilis (TMA inhibition)
Protocol: as §1, §2, §3, §4

[5] = molecular target: T1, purified CutC (choline trimethylamine-lyase) (Oleidesulfovibrio alaskensis, UniProt Q30W70); assay: In vitro CutC activity assay coupled to YADH/NADH (absorbance 340 nm); format: biochemical, Desulfovibrio desulfuricans G20; settings: 5 nM CutC, 200 µM choline, 20°C, anaerobic
T1 construct: made in house
T1 sequence (Q30W70 53-846): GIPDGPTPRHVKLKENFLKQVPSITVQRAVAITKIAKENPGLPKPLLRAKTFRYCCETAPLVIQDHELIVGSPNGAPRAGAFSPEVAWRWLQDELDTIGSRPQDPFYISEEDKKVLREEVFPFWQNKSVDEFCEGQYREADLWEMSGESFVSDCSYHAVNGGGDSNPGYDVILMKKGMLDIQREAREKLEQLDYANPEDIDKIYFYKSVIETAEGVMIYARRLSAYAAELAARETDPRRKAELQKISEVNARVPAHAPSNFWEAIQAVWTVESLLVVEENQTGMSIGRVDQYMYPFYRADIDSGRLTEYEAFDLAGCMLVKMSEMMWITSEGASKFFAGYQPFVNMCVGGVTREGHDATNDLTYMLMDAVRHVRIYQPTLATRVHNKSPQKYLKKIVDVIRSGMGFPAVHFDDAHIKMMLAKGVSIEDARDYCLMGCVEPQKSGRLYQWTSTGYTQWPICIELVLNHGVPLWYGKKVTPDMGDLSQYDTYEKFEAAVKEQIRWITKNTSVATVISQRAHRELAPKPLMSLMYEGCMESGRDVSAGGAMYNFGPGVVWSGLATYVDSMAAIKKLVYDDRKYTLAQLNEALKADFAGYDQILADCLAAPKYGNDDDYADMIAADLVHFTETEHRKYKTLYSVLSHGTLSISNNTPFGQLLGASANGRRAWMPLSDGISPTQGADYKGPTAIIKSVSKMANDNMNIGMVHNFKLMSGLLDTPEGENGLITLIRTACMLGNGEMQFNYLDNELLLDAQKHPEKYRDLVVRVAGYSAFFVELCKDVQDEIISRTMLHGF
Protocol: To investigate if our compounds were inhibiting CutC directly, we tested their activity toward the purified enzyme. The activity of CutC was determined using a coupled enzyme assay, where the acetaldehyde product from the cleavage of choline to TMA is reduced to ethanol by yeast alcohol dehydrogenase (YADH) using nicotinamide adenine dinucleotide (NADH) as a cofactor. The consumption of NADH results in a change in absorption at 340 nm, and this rate of change of absorption was used to calculate the initial rates of reaction of CutC in the presence of varying concentrations of inhibitors ([14], [65]).
CutC and CutD enzymes from Desulfovibrio desulfuricans G20 were purified, CutC was activated by incubation with CutD, and the amount of glycyl radical installation was quantified as previously described ([15]). The IC50 of compounds was determined in an in vitro CutC activity assay, where CutC activity is coupled to the NADH-dependent enzymatic reduction of acetaldehyde by YADH ([15]). Briefly, assays were conducted in an anaerobic chamber (MBraun) under N2 atmosphere at 20°C. In 50 mM potassium phosphate buffer (pH 8.0, 50 mM KCl), 40 µM of CutD and 150 µM of sodium dithionite were incubated for 20 min before the addition of 200 µM of SAM and 20 µM of CutC monomer. The mixture was incubated for 1 h to activate the glycyl radical enzyme, after which the activated CutC mixture was diluted […] in 50 mM potassium phosphate buffer (pH 8.0, 50 mM KCl). A master mix containing 200 µM NADH, 0.4 µM YADH (Sigma), and the diluted CutC mixture (5 nM final concentration in assay) was prepared and aliquoted into 96-well plates (180 µL per well). Ten microliters of inhibitor or DMSO vehicle was added, followed by 10 µL of aqueous choline chloride solution (final concentration 200 µM). Absorbance was measured at 340 nm immediately after addition of all assay components, with measurements taken every 20 s for 10 min. Initial rates were calculated from absorbance measurements and fitted to Michaelis–Menten equation using nonlinear regression in GraphPad Prism 10 (v. 10.4.0). Background activity was subtracted using no substrate controls, and initial rates for each inhibitor concentration were normalized to no inhibitor controls. IC50 values were obtained by plotting normalized activity values against the logarithm of inhibitor concentration and fitting to a nonlinear regression model in GraphPad Prism 10 (v. 10.4.0).

E. coli MS 200-1 [6] = assay: MIC in MEGA medium; format: cell-based, Escherichia coli MS 200-1; settings: Escherichia coli, MS2001; anaerobic, 37°C, 24 h, up to 200 µM
Protocol: as §1

[7] = test system: Anaerococcus hydrogenalis DSM 7454; assay: MIC in MEGA medium; format: cell-based; settings: Anaerococcus hydrogenalis, DSM7454; anaerobic, 37°C, 24 h, up to 200 µM
Protocol: as §1

[8] = test system: Bacteroides caccae ATCC 43185; assay: MIC in MEGA medium; format: cell-based; settings: Bacteroides caccae, ATCC43185; anaerobic, 37°C, 24 h, up to 200 µM; read-out: MIC in MEGA medium, B. caccae
Protocol: as §1

[9] = test system: Bacteroides ovatus ATCC 8483; assay: MIC in MEGA medium; format: cell-based; settings: Bacteroides ovatus, ATCC8483; anaerobic, 37°C, 24 h, up to 200 µM; read-out: MIC in MEGA medium, B. ovatus
Protocol: as §1

[10] = test system: Bacteroides thetaiotaomicron VPI-5482; assay: MIC in MEGA medium; format: cell-based; settings: Bacteroides thetaiotaomicron, VPI5482; anaerobic, 37°C, 24 h, up to 200 µM; read-out: MIC in MEGA medium, B. thetaiotaomicron
Protocol: as §1

[11] = test system: Clostridium sporogenes ATCC 15579; assay: MIC in MEGA medium; format: cell-based; settings: Clostridium sporogenes, ATCC15579; anaerobic, 37°C, 24 h, up to 200 µM
Protocol: as §1

[12] = test system: Collinsella aerofaciens ATCC 25986; assay: MIC in MEGA medium; format: cell-based; settings: Collinsella aerofaciens, ATCC25986; anaerobic, 37°C, 24 h, up to 200 µM
Protocol: as §1

[13] = test system: Proteus mirabilis ATCC 29906; assay: MIC in MEGA medium; format: cell-based; settings: Proteus mirabilis, ATCC29906; anaerobic, 37°C, 24 h, up to 200 µM; read-out: MIC in MEGA medium, P. mirabilis
Protocol: as §1

Compound | EC50 (E. coli MS 200-1 [1]) | EC50 [4] | IC50 [5] | EC50 [2] | EC50 [3] | Purified CutC IC50 [5] | other results
Cc1cc(-c2cc(C(=O)NCCCN3CCC(C)CC3)c(C)[nH]2)ccn1 [Compound 26] | > 125 µM | > 312 µM | 45 µM | – | – | – | EC50 in whole cells, A. hydrogenalis (TMA inhibition) [2]: No inhibition at 312; EC50 in whole cells, C. sporogenes (TMA inhibition) [3]: No inhibition at 312
Cc1ccc(-c2cc(C(=O)N(C)CCCN3CCC(C)CC3)c(C)[nH]2)cc1C [Compound 27] | > 125 µM | > 312 µM | 18 µM | 44 µM | 12 µM | – | –
Cc1ccc(-c2cc(C(=O)OCCCN3CCC(C)CC3)c(C)[nH]2)cc1C [Compound 28] | 15 µM | > 312 µM | – | 11 µM | 18 µM | No inhibition | –
Cc1ccc(-c2cc(C(=O)NCCCN3CCOCC3)c(C)[nH]2)cc1C [Compound 37] | – | – | – | – | – | No inhibition | –
Cc1ccc(-c2cc(C(=O)NCCCCN3CCCCCC3)c(C)[nH]2)cc1C [Compound 44] | – | – | – | – | – | – | MIC (E. coli MS 200-1 [6]): > 200 µM; MIC [7]: > 200 µM; MIC [8]: > 200 µM; MIC [9]: > 200 µM; MIC [10]: > 200 µM; MIC [11]: > 200 µM; MIC [12]: > 200 µM; MIC [13]: > 200 µM
